Experimental data: US10941158B2, “Pyrazole ACC inhibitors and uses thereof” (Gilead Apollo, LLC, priority 2015, dated 2021)
In brackets after ≈: the same amount, converted by molar mass. Where two headings read alike, the source gives them in different places.

How the values were obtained:
[1] = system: C. parapsilosis ATCC 22019; test: Anti-Fungal (Candida) Activity Assay, broth microtiter MIC; format: cell-based; conditions: Lodderomyces parapsilosis, read-out: MIC C. parapsilosis ATCC 22019
Procedure, shortened: (§1)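 MIC by visual comparison of challenged wells with growth control, scored at 48 h. Setup: CLSI M27-A3 broth microtiter plates, RPMI 1640+MOPS medium, direct colony suspension from overnight Sabouraud agar cultures (35 °C, 24 h).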

C. albicans ATCC 90028 = test: as above; format: cell-based; conditions: read-out: MIC C. albicans ATCC 90028
Procedure, shortened: as §1

C. krusei ATCC 6258 = test: as above; format: cell-based; conditions: Pichia kudriavzevii, read-out: MIC C. krusei ATCC 6258
Procedure, shortened: as §1

human (hACC2) ACC2 = human (hACC2) ACC2 (Homo sapiens, UniProt O00763); test: In vitro Acetyl-CoA Carboxylase (ACC) inhibition assay (ADP-Glo), hACC2; format: biochemical
Protocol: The detailed procedure is as follows. […] 10 μL ADP glo reagent was added. […] 20 μL kinase detection reagent was added.
“NA” stands for “not assayed.”

Botrtyis cinerea (Bc) = test: Growth inhibition assay of fungal pathogens; format: cell-based; conditions: 48 h, read-out: Concentration at 90% Inhibition Bc
Procedure, shortened: (§2)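 OD600 (blank-subtracted) plus visual scoring at 48 h, vs 2% DMSO ctrl → % inhibition. Final cpd 50/10/2 or 2/0.4/0.08 ppm. Fm/Bc/Dm spores in 17% V8 broth; Rs as 1.5 mm plugs in ¼ PDB.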

Rhizoctonia solani (Rs) = test: Growth inhibition assay of fungal pathogens; format: cell-based; conditions: 48 h, read-out: Concentration at 90% Inhibition Rs
Procedure, shortened: as §2

Diplodia maydis (Dm) = test: Growth inhibition assay of fungal pathogens; format: cell-based; conditions: Stenocarpella maydis, 48 h, read-out: Concentration at 90% Inhibition Dm
Procedure, shortened: as §2

Septoria tritici (St) = test: Growth inhibition assay of fungal pathogens; format: cell-based; conditions: for IC90: Zymoseptoria tritici, read-out: Concentration at 90% Inhibition St
Procedure, shortened: (§3)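 Percent growth inhibition was derived from 48 h OD600 and visual scores relative to 2% DMSO, with blank background subtraction. Fungi were grown from spores in 17% V8 liquid medium, R. solani from 1.5 mm plugs in ¼ PDB, with compound at final 50/10/2 or 2/0.4/0.08 ppm.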

[2] = system: Collectotrichum graminicola (Cg); test: Growth inhibition assay of fungal pathogens; format: cell-based; conditions: 48 h, read-out: Concentration at 90% Inhibition Cg
Procedure, shortened: as §3

[3] = system: Fusarium virguliforme (Fv); test: Growth inhibition assay of fungal pathogens; format: cell-based; conditions: 48 h
Procedure, shortened: as §3

[4] = system: Phytophthora capsici (Pc); test: Growth inhibition assay of fungal pathogens; format: cell-based; conditions: for IC90: Phytophthora capsici, read-out: Concentration at 90% Inhibition Pc
Procedure, shortened: as §3

[5] = system: Fusarium moniliforme (Fm); test: Growth inhibition assay of fungal pathogens; format: cell-based; conditions: for IC90: Fusarium verticillioides, 48 h, read-out: Concentration at 90% Inhibition Fm
Procedure, shortened: as §2

fungal (fACC2) ACC2 = fungal (fACC2) ACC2 (UniProt Q00955); conditions: read-out: fACC2 IC50; fungal ACC2, ADP-Glo
[6] = read-out: Concentration at 90% Inhibition Fv, Table 4a, 48 hours
[7] = read-out: Concentration at 90% Inhibition Fv, Table 4b, 48 hours

Chain of fungal (fACC2) ACC2 (Q00955 whole entry): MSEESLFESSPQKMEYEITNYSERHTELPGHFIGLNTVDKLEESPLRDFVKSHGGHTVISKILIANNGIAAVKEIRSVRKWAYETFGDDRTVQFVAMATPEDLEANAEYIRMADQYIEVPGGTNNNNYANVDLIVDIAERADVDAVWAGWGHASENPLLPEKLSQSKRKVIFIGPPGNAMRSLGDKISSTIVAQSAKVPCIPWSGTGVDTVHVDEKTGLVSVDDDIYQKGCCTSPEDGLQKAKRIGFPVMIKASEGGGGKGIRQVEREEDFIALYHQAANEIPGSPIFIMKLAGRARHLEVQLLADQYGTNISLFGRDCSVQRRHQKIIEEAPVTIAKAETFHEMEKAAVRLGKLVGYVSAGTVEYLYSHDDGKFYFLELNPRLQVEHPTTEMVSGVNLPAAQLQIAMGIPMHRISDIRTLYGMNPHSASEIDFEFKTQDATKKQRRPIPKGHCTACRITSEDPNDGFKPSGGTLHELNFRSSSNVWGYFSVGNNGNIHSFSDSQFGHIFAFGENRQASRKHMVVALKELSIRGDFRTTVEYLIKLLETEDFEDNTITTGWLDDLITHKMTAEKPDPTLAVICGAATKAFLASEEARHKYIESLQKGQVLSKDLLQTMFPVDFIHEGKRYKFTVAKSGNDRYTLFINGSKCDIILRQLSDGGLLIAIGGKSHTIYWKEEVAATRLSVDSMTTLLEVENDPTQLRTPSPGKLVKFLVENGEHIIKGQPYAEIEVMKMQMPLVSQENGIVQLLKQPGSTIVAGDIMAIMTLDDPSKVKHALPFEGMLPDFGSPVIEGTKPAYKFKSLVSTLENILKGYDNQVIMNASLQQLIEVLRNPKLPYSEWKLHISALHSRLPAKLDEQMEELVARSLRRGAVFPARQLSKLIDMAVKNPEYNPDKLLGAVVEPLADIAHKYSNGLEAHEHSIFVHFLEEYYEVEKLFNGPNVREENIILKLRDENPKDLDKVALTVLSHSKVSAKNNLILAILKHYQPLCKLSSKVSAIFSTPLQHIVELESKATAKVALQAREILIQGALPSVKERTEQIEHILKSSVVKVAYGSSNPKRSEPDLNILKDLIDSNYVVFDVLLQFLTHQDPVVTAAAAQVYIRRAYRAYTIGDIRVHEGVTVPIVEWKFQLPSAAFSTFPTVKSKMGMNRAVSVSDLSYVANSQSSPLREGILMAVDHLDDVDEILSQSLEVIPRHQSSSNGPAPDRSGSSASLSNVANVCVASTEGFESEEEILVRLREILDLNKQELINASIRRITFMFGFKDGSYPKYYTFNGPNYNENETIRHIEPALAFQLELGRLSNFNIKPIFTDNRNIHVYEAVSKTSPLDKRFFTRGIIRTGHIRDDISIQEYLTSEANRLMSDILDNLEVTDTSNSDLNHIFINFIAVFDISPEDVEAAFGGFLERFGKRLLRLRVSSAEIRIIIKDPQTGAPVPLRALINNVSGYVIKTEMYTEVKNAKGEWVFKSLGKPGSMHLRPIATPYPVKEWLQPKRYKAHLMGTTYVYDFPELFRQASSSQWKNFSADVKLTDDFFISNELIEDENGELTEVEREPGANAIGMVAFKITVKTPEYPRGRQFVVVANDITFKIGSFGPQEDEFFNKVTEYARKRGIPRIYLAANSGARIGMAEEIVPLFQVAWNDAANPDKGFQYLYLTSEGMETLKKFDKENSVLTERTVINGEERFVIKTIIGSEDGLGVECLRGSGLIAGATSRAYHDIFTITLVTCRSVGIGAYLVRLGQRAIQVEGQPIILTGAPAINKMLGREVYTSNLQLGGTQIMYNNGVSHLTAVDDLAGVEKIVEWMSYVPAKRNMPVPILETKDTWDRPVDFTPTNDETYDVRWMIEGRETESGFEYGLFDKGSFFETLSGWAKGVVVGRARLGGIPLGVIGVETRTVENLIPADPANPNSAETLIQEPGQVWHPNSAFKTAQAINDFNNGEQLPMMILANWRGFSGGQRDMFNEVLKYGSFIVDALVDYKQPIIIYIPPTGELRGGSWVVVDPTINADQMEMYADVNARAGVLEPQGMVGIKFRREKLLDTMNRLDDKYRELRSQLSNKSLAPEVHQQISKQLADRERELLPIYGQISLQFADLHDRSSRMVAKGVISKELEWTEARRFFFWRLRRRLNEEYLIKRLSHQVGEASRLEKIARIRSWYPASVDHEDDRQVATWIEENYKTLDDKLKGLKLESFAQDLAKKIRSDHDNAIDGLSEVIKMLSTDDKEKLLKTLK
Chain of human (hACC2) ACC2 (O00763 whole entry): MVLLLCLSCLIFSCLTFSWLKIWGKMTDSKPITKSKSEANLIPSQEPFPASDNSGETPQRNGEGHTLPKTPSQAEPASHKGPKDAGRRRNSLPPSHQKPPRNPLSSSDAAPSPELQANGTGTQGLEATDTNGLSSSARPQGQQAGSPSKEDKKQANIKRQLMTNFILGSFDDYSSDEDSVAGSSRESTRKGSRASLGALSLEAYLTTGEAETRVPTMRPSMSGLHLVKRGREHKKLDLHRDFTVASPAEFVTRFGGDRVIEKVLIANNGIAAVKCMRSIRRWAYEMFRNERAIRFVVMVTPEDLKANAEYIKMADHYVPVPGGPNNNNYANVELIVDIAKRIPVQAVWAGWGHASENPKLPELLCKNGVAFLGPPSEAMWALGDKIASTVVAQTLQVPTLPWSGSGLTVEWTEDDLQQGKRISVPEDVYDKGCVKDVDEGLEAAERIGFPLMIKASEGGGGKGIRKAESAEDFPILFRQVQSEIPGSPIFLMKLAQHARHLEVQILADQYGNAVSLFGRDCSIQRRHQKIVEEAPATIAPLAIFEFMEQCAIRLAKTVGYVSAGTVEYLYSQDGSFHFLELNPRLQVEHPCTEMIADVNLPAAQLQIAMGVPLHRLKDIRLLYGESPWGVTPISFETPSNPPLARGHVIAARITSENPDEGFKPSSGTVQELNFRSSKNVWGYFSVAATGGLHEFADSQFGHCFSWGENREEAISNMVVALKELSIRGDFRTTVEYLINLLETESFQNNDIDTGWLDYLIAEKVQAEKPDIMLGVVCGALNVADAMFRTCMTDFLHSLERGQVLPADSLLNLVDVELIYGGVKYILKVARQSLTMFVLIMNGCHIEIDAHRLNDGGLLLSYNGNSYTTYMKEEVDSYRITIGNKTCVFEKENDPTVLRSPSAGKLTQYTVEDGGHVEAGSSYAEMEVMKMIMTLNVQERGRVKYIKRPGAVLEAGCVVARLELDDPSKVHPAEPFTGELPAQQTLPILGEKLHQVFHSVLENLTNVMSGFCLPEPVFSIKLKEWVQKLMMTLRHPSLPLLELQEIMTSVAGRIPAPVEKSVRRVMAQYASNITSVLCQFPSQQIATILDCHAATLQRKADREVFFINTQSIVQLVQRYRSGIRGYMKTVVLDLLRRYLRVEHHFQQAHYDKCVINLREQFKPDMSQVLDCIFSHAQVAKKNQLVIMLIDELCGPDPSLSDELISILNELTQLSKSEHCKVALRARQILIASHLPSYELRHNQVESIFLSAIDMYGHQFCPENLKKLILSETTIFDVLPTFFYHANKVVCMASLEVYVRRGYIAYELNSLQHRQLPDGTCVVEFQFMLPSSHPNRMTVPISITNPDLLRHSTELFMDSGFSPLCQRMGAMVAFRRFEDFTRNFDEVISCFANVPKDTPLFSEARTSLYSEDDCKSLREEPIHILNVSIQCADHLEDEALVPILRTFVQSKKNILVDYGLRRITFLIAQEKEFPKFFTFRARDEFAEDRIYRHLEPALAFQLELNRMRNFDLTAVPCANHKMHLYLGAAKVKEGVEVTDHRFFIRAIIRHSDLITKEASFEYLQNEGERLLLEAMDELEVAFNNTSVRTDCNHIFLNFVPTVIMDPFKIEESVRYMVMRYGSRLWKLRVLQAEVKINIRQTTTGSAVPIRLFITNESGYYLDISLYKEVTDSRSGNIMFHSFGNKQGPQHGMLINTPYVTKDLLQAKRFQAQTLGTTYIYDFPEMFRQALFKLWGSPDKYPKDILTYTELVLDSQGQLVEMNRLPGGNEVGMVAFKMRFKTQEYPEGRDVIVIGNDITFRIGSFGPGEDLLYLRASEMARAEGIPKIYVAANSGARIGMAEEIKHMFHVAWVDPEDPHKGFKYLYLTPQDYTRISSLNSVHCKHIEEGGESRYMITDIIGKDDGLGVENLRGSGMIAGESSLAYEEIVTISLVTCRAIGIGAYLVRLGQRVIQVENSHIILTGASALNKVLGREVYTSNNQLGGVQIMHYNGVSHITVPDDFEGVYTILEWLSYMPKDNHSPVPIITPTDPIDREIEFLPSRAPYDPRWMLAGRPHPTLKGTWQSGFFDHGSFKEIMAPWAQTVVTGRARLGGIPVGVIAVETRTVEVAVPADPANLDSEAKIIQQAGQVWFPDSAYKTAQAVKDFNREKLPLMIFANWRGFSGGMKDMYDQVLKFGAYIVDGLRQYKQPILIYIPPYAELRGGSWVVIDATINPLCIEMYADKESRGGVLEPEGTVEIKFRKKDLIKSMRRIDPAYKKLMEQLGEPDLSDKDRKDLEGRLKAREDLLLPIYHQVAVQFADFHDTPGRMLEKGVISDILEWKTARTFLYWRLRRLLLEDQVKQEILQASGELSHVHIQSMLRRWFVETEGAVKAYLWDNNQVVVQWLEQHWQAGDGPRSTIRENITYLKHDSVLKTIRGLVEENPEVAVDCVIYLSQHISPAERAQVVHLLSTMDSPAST

Row | SMILES | MIC ([1]; ATCC22019, 48 h) [µg/mL] | MIC (C. albicans ATCC 90028; ATCC90028, 48 h) [µg/mL] | MIC (C. krusei ATCC 6258; ATCC6258, 48 h) [µg/mL] | IC50 (human (hACC2) ACC2) [nM] | IC90 (Botrtyis cinerea (Bc); Table 4a) [µg/mL] | IC90 (Botrtyis cinerea (Bc); Table 4b) [µg/mL] | IC90 (Rhizoctonia solani (Rs); Table 4a) [µg/mL] | IC90 (Rhizoctonia solani (Rs); Table 4b) [µg/mL] | IC90 (Diplodia maydis (Dm); Table 4a) [µg/mL] | IC90 (Diplodia maydis (Dm); Table 4b) [µg/mL] | IC90 (Septoria tritici (St); 48 h, Table 4a) [µg/mL] | IC90 (Septoria tritici (St); 48 h, Table 4b) [µg/mL] | IC90 ([2]; Table 4a) [µg/mL] | IC90 ([2]; Table 4b) [µg/mL] | IC90 [3, 6] [µg/mL] | IC90 [3, 7] [µg/mL] | IC90 ([4]; 48 h, Table 4a) [µg/mL] | IC90 ([4]; 48 h, Table 4b) [µg/mL] | IC90 [5] [µg/mL] | IC50 (fungal (fACC2) ACC2) [nM] | other results
1 | COc1ccc(F)cc1[C@H](Cn1c(=O)n(C(C)(C)C(=O)NC(C)C)c(=O)c2c(C)c(-n3cccn3)sc21)OCC(C)(C)O [Compound I-41, (R)-2-(1-(2-(5-fluoro-2-methoxyphenyl)-2-(2-hydroxy-2-methylpropoxy)ethyl)-5-methyl-2,4-dioxo-6-(1H-pyrazol-1-yl)-1,4-dihydro-thieno[2,3-d]pyrimidin-3(2H)-yl)-N-isopropyl-2-methylpropanamide] | > 4.1 | > 4.1 | > 4.1 | 3 to 10 | 2 (≈ 3.25 µM) | 2 (≈ 3.25 µM) | 10 (≈ 16.2 µM) | 2 (≈ 3.25 µM) | 10 (≈ 16.2 µM) | 2 (≈ 3.25 µM) | > 50 | 10 (≈ 16.2 µM) | 2 (≈ 3.25 µM) | 2 (≈ 3.25 µM) | 0.4 (≈ 0.65 µM) | 0.4 (≈ 0.65 µM) | > 50 | > 50 | 0.4 (≈ 0.65 µM) | 0.6 to 3 | Concentration at 90% Inhibition Fm ([5]; Table 4b, 48 hours): A (“A” provided a compound concentration of 0.4 ppm at 90% inhibition of fungal pathogens)
2 | COc1ccc(F)cc1[C@H](Cn1c(=O)n(C(C)(C)C(=O)N2CCCC2)c(=O)c2c(C)c(-n3cccn3)sc21)OCC(C)(C)O [Compound I-42, (R)-1-(2-(5-fluoro-2-methoxyphenyl)-2-(2-hydroxy-2-methylpropoxy)ethyl)-5-methyl-3-(2-methyl-1-oxo-1-(pyrrolidin-1-yl)propan-2-yl)-6-(1H-pyrazol-1-yl)thieno[2,3-d]pyrimidine-2,4(1H,3H)-dione] |  |  |  | 3 to 10 | > 50 | 10 (≈ 15.9 µM) | 10 (≈ 15.9 µM) | 2 (≈ 3.19 µM) | > 50 | 10 (≈ 15.9 µM) |  |  | > 50 | 10 (≈ 15.9 µM) |  |  |  |  |  | 0.6 to 3 | MIC ([1]; ATCC22019, 3 replicates, MIC recorded at 48 h): > 4.1 µg/mL; MIC (C. albicans ATCC 90028; ATCC90028, 3 replicates, MIC recorded at 48 h): 2.1 to 4 µg/mL (≈ 3.35 to 6.37 µM); MIC (C. krusei ATCC 6258; ATCC6258, 3 replicates, MIC recorded at 48 h): 2.1 to 4 µg/mL (≈ 3.35 to 6.37 µM); Concentration at 90% Inhibition St (Septoria tritici (St); Table 4b, 48 hours): D (“D” provided a compound concentration of >50 ppm at 90% inhibition of fungal pathogens); IC90 (Septoria tritici (St); Table 4a, 48 hours): > 50 µg/mL; IC90 ([3]; Table 4a, 48 hours, read-out: Concentration at 90% Inhibition Fv): > 50 µg/mL; IC90 ([3]; Table 4b, 48 hours, read-out: Concentration at 90% Inhibition Fv): 10 µg/mL (≈ 15.9 µM); IC90 ([4]; Table 4a, 48 hours): > 50 µg/mL; Concentration at 90% Inhibition Pc ([4]; Table 4b, 48 hours): D (“D” provided a compound concentration of >50 ppm at 90% inhibition of fungal pathogens); IC90 ([5]; Table 4a, 48 hours): 0.4 µg/mL (≈ 0.637 µM); IC90 ([5]; Table 4b, 48 hours): 0.4 µg/mL (≈ 0.637 µM)
3 | COCCO[C@@H](Cn1c(=O)n(C(C)(C)C(=O)NC(C)C)c(=O)c2c(C)c(-n3cccn3)sc21)c1cc(F)ccc1OC [Compound I-43, (R)-2-(I-(2-(5-fluoro-2-methoxyphenyl)-2-(2-methoxy-ethoxy)ethyl)-5-methyl-2,4-dioxo-6-(1H-pyrazol-1-yl)-1,4-dihydrothieno[2,3-d]pyrimidin-3(2H)-yl)-N-isopropyl-2-methylpropanamide] | 2.1 to 4 (≈ 3.49 to 6.65 µM) | 1.1 to 2 (≈ 1.83 to 3.32 µM) | 0.25 to 1 (≈ 0.415 to 1.66 µM) | 10 to 40 | > 50 | 10 (≈ 16.6 µM) | > 50 | 10 (≈ 16.6 µM) | > 50 | 10 (≈ 16.6 µM) | > 50 | > 50 | > 50 | > 50 | 2 (≈ 3.32 µM) | 2 (≈ 3.32 µM) | > 50 | > 50 | 2 (≈ 3.32 µM) | 0.6 to 3 | Concentration at 90% Inhibition Fm ([5]; Table 4b, 48 hours): B (“B” provided a compound concentration of 2.0 ppm at 90% inhibition of fungal pathogens)
